Values after ≈ are worked out from the molar mass of the structure shown.
Tests used:
Calu-1 = experiment: Alamar Blue assay, additional cell lines; type: cell-based, human; conditions: Calu-1, Non-small cell lung carcinoma, Alamar Blue
Text: (§1) The results of this additional testing are summarized in Tables 7-10 (no additional cell lines were identified as sensitive for Compound 3). […] The tumor type, cell line, maximum percentage inhibition, the concentration of compound required to inhibit cell growth by 50%, and RAS mutation (if any) are also summarized.

PaCa-2 = experiment: Alamar Blue assay, additional cell lines; type: cell-based, human; conditions: Pancreatic Cancer
Text: as §1

[1] = system: BJ-TERT/LT/ST/RAS^V12 cells; experiment: Alamar blue growth inhibition in dilution series; type: cell-based, human; conditions: Homo sapiens, alamar blue
[2] = system: A549, Calu-1, PaCa, and HCT116 cells; experiment: Alamar blue assay in KRAS-mutation-harboring cancer cells; type: cell-based, human
Protocol: A549, Calu-1, HCT116 and MIA PaCa-2 cell lines have an oncogenic mutation in the KRAS gene. Compounds which tested positive in the oncogenic HRAS primary screen were also tested for their selectivity against oncogenic KRAS which is more commonly mutated in human cancers.

HL-60(TB) = experiment: cells; conditions: Homo sapiens; for GI50: HL-60; for CC50: HL-60, read-out: LC 50%
K-562 = experiment: NCI60 anti-cancer screening; conditions: for GI50 / CC50: Homo sapiens; for GI50: K562; for CC50: K562, read-out: LC 50%
RPMI-8226 = experiment: NCI60 anti-cancer screening
HOP-92 = experiment: NCI60 anti-cancer screening; conditions: for GI 100% / GI50: HOP-92; for GI 100%: Non-small cell lung carcinoma; for GI50 / CC50: Homo sapiens; for CC50: HOP-92, read-out: LC 50%
NCI-H522 = experiment: NCI60 anti-cancer screening
HCT-116 = experiment: NCI60 anti-cancer screening
HT29 = experiment: NCI60 anti-cancer screening; conditions: for GI 100%: HT29, Colon Cancer; for GI50 / CC50: Homo sapiens; for GI50: HT-29; for CC50: HT-29, read-out: LC 50%
KM12 = experiment: NCI60 anti-cancer screening
SW-620 = experiment: NCI60 anti-cancer screening
SF-268 = experiment: NCI60 anti-cancer screening
LOX IMVI = experiment: NCI60 anti-cancer screening
MALME-3M = experiment: NCI60 anti-cancer screening
M14 = experiment: NCI60 anti-cancer screening
SK-MEL-2 = experiment: NCI60 anti-cancer screening
UACC-62 = experiment: NCI60 anti-cancer screening
OVCAR-4 = experiment: NCI60 anti-cancer screening
786-0 = experiment: NCI60 anti-cancer screening; conditions: for GI 100% / GI50: 786-0; for GI 100%: Renal Cancer; for GI50 / CC50: Homo sapiens; for CC50: 786-0, read-out: LC 50%
SN12C = experiment: NCI60 anti-cancer screening
MDA-MB-231/ATCC = experiment: NCI60 anti-cancer screening
HS 578T = experiment: NCI60 anti-cancer screening; conditions: for GI 100%: HS 578T, Breast Cancer; for GI50 / CC50: Homo sapiens, Hs-578T; for CC50: read-out: LC 50%
BT-549 = experiment: NCI60 anti-cancer screening; conditions: for GI 100% / GI50: BT-549; for GI 100%: Breast Cancer; for GI50 / CC50: Homo sapiens; for CC50: BT-549, read-out: LC 50%
[3] = system: BJ cell system (BJ-TERT, BJ-TERT/LT/ST, BJ-TERT/LT/ST/RAS^V12, DRD cells); experiment: Alamar blue potency and selectivity in the engineered BJ cell system; conditions: oncogenic-RAS-expressing vs non-oncogenic-RAS-expressing BJ cells; alamar blue
Protocol: Empty “step-daughter plates” were filled with 50 μL DMEM, except for columns 3 and 13, where 100 μL of hit compound solution were cherry-picked from daughter plates. After compound transfer, 2-fold dilution series across columns 3 through 12 and columns 13 through 22 was made by transferring 50 μL of compound solution to the next column successively (10-point dilution series), with extensive mixing. Hit-picking and 2-fold dilution series were carried out using Biomek FX Span-8 module (Beckman Coulter). Assay plates were prepared by seeding 1,000 BJ-TERT, BJ-TERT/LT/ST, and BJ-TERT/LT/ST/RAS^V12 cells per well in 36 μL growth medium. Cells in assay plates were treated with compounds from step-daughter plates by transferring 4 μL. The final concentration of the compound was 5.33 μg/mL to 0.01 μg/mL in this 10-point, 2-fold dilution series. Assay plates were returned to the culture incubator and maintained for 48 hours before adding alamar blue.
Fresh daughter plates were made from the mother plate and cherry-picked hits from the first round, 2-fold dilution series experiment as described above. Assay plates were prepared by seeding 1,000 BJ-TERT, BJ-TERT/LT/ST, BJ-TERT/LT/ST/RAS^V12 or BJ-TERT/p53DD/CDK4/cyclinD1/ST/RAS^V12 (DRD) cells per well in 32 μL growth media. Cells in the assay plates were treated with compounds from the step-daughter plate by transferring 8 μL solution. The final concentration of the compound was 10.66 μg/mL to 0.02 μg/mL in a 10-point, 2-fold dilution series manner. Assay plates were returned to the culture incubator and maintained for 48 hours before adding alamar blue.
Cells were seeded in 384-well assay plates, treated with candidate compounds, and incubated in the culture incubator in 40 μL culture volume per well. […] Plates were incubated further for 16 hours to allow reduction of alamar blue, which results in the generation of red fluorescence. The fluorescence intensity was determined using a Victor 3 plate reader (Perkin Elmer) with a 535 nm excitation filter and a 590 nm emission filter.
In the subsequent two-fold dilution series testing, selectivity was calculated as the ratio of GI50 values in BJ-TERT/LT/ST and BJ-TERT/LT/ST/RAS^V12 cells. […] DRD cells are also derived from BJ primary cells and the effects of mutations in both lines should be similar.

UO-31 = experiment: NCI60 anti-cancer screening
NCI/ADR-RES = experiment: NCI60 anti-cancer screening

In the case of `CCc1c(O)c2c(c(O)c1O[C@H]1O[C@@H](COC(C)=O)[C@H](OC(C)=O)[C@@H](CC(C)=O)[C@@H]1OC(C)=O)C(=O)C(O[C@@H]1O[C@H](COC(C)=O)[C@@H](OC(C)=O)[C@H](OC(C)=O)[C@H]1OC(C)=O)=C(O[C@@H]1O[C@H](COC(C)=O)[C@@H](OC(C)=O)[C@H](OC(C)=O)[C@H]1OC(C)=O)C2=O` [Compound 6], the “Maximum Inhibition %” value (Calu-1) was 100%, the GI50 (Calu-1; Homo sapiens) was 2500 nM and the GI50 (PaCa-2; Homo sapiens) was 600 nM. For the same compound, the “Maximum Inhibition %” value (PaCa-2) was 100%, the IC90 [1] was 2.5 µg/mL (≈ 1.99 µM) and the “activity in KRAS-mutation-harboring cancer cells (in words)” value [2] was “reasonable potency”. The GI50 (HL-60(TB)) was 0.516 µM, the CC50 (HL-60(TB)) was 8.25 µM and the GI50 (K-562) was 0.238 µM. The CC50 (K-562) was over 10 µM, the GI50 (RPMI-8226; Homo sapiens, RPMI-8226) was 2370 nM and the CC50 (RPMI-8226; Homo sapiens, RPMI-8226, read-out: LC 50%) was over 10 µM. For the same compound, the “GI 100%” value (RPMI-8226; RPMI-8226, Leukemia) was 6.77 µM, the “GI 100%” value (HOP-92) was 4.31 µM and the GI50 (HOP-92) was 1.48 µM. It also gave a CC50 (HOP-92) of over 10 µM, a GI50 (NCI-H522; Homo sapiens, NCI-H522) of 490 nM and a CC50 (NCI-H522; Homo sapiens, NCI-H522, read-out: LC 50%) of 5.12 µM. The “GI 100%” value (NCI-H522; NCI-H522, Non-small cell lung carcinoma) was 1.79 µM, the “GI 100%” value (HCT-116; HCT-116, Colon Cancer) was 1.32 µM and the GI50 (HCT-116; Homo sapiens, HCT-116) was 376 nM. For the same compound, the CC50 (HCT-116; Homo sapiens, HCT-116, read-out: LC 50%) was 3.64 µM, the “GI 100%” value (HT29) was over 10 µM and the GI50 (HT29) was 3.32 µM. The CC50 (HT29) was over 10 µM, the GI50 (KM12; Homo sapiens, KM12) was 5.2 µM and the CC50 (KM12; Homo sapiens, KM12, read-out: LC 50%) was over 10 µM. For the same compound, the “GI 100%” value (KM12; KM12, Colon Cancer) was over 10 µM, the GI50 (SW-620; Homo sapiens, SW-620) was 271 nM and the CC50 (SW-620; Homo sapiens, SW-620, read-out: LC 50%) was 3.9 µM. For the same compound, the “GI 100%” value (SW-620; SW-620, Colon Cancer) was 1.03 µM, the GI50 (SF-268; Homo sapiens, SF-268) was 2460 nM and the CC50 (SF-268; Homo sapiens, SF-268, read-out: LC 50%) was over 10 µM. The “GI 100%” value (SF-268; SF-268, CNS Cancer) was 7.71 µM, the GI50 (LOX IMVI; Homo sapiens) was 1730 nM and the CC50 (LOX IMVI; Homo sapiens, read-out: LC 50%) was 6.25 µM. The “GI 100%” value (LOX IMVI; Melanoma) was 3.29 µM, the GI50 (MALME-3M; Homo sapiens, Malme-3M) was 261 nM and the CC50 (MALME-3M; Homo sapiens, Malme-3M, read-out: LC 50%) was 2800 nM. The “GI 100%” value (MALME-3M; MALME-3M, Melanoma) was 0.723 µM, the GI50 (M14; Homo sapiens, M14) was 2070 nM and the CC50 (M14; Homo sapiens, M14, read-out: LC 50%) was 9.28 µM. The “GI 100%” value (M14; M14, Melanoma) was 4.38 µM, the GI50 (SK-MEL-2; Homo sapiens, SK-MEL-2) was 2320 nM and the CC50 (SK-MEL-2; Homo sapiens, SK-MEL-2, read-out: LC 50%) was over 10 µM. The “GI 100%” value (SK-MEL-2; SK-MEL-2, Melanoma) was 6.87 µM, the GI50 (UACC-62; Homo sapiens, UACC-62) was 9.78 µM and the CC50 (UACC-62; Homo sapiens, UACC-62, read-out: LC 50%) was over 10 µM. For the same compound, the “GI 100%” value (UACC-62; UACC-62, Melanoma) was over 10 µM, the GI50 (OVCAR-4; Homo sapiens, OVCAR-4) was 5.71 µM and the CC50 (OVCAR-4; Homo sapiens, OVCAR-4, read-out: LC 50%) was over 10 µM. The “GI 100%” value (OVCAR-4; OVCAR-4, Ovarian Cancer) was over 10 µM, the “GI 100%” value (786-0) was 5.54 µM and the GI50 (786-0) was 2.51 µM. It also gave a CC50 (786-0) of over 10 µM, a GI50 (SN12C; Homo sapiens) of 8.1 µM and a CC50 (SN12C; Homo sapiens, read-out: LC 50%) of over 10 µM. The “GI 100%” value (SN12C; Renal Cancer) was over 10 µM, the GI50 (MDA-MB-231/ATCC; Homo sapiens, MDA-MB-231) was 1750 nM and the CC50 (MDA-MB-231/ATCC; Homo sapiens, MDA-MB-231, read-out: LC 50%) was 9.52 µM. The “GI 100%” value (MDA-MB-231/ATCC; MDA-MB-231/ATCC, Breast Cancer) was 4.09 µM, the “GI 100%” value (HS 578T) was over 10 µM and the GI50 (HS 578T) was 3.31 µM. The CC50 (HS 578T) was over 10 µM, the “GI 100%” value (BT-549) was 3.27 µM and the GI50 (BT-549) was 1490 nM. For the same compound, the CC50 (BT-549) was 7.21 µM and the “degree of selectivity against HRAS^G12V” value [3] was 4-8 fold.

For `COCCOC(=O)C1=C(C)NC2=C(C(=O)CC(c3ccc(Cl)cc3)C2)C1c1ccccc1F` (stereo not shown) [Compound 3], the IC90 [1] was 10 µg/mL (≈ 21.3 µM), the “activity in KRAS-mutation-harboring cancer cells (in words)” value [2] was “less activity” and the GI50 (HL-60(TB)) was 9.8 µM. For the same compound, the CC50 (HL-60(TB)) was over 10 µM, the GI50 (K-562) was 9.16 µM and the CC50 (K-562) was over 10 µM. The “GI 100%” value (K-562; K-562, Leukemia) was over 10 µM, the “GI 100%” value (HOP-92) was over 10 µM and the GI50 (HOP-92) was 6.18 µM. The CC50 (HOP-92) was over 10 µM, the “GI 100%” value (HT29) was over 10 µM and the GI50 (HT29) was 9.82 µM. The CC50 (HT29) was over 10 µM, the “GI 100%” value (786-0) was over 10 µM and the GI50 (786-0) was 9.27 µM. It also gave a CC50 (786-0) of over 10 µM, a GI50 (UO-31; Homo sapiens, UO-31) of 6.82 µM and a CC50 (UO-31; Homo sapiens, UO-31, read-out: LC 50%) of over 10 µM. For the same compound, the “GI 100%” value (UO-31; UO-31, Renal Cancer) was over 10 µM, the “GI 100%” value (NCI/ADR-RES; Breast Cancer) was over 10 µM and the GI50 (NCI/ADR-RES; Homo sapiens) was 8.93 µM. For the same compound, the CC50 (NCI/ADR-RES; Homo sapiens, read-out: LC 50%) was over 10 µM, the “GI 100%” value (HS 578T) was over 10 µM and the GI50 (HS 578T) was 9.31 µM. For the same compound, the CC50 (HS 578T) was over 10 µM, the “GI 100%” value (BT-549) was over 10 µM and the GI50 (BT-549) was 4280 nM. For the same compound, the CC50 (BT-549) was over 10 µM and the “degree of selectivity against HRAS^G12V” value [3] was 4-8 fold.
